# Experimental data as given in patent US20200085839A1, “COMBINATION OF IMMUNOTHERAPEUTICS AND BISFLUOROALKYL-1,4-BENZODIAZEPINONE COMPOUNDS FOR TREATING LYMPHOMAS” (Ayala Pharmaceuticals Inc., priority 2018, published 2020).
# Like-named read-outs stand apart in the source and are kept apart here.
# Key:
# [1] = system: Multiple Myeloma; experiment: Anti-tumor activity of CAR-BCMA T cells and Compound (1) in patients; format: in vivo, human; settings: CAR-BCMA T cells with a composition comprising Compound (1)
# Protocol: All patients receive 3 doses of 300 mg/m^2 cyclophosphamide and 3 doses of 30 mg/m^2 fludarabine. Chemotherapy is administered because recipient leukocyte depletion enhances the activity of adoptively transferred T cells. Both chemotherapy agents are administered daily on days −5, −4, and −3 before CAR-BCMA T-cell infusion on day 0. CAR-BCMA T cells are administered to each patient with a composition comprising Compound (1). The dose escalation plan calls for an initial dose of 0.3×10^6 CAR^+ T cells/kg with threefold increases to each subsequent dose level.
# Myeloma staging is conducted according to the International Uniform Response Criteria for Multiple Myeloma. Toxicity is graded by the Common Terminology Criteria for Adverse Events version 4.02. Two weeks, 1 month, 2 months, 3 months, and 6 months after CAR-BCMA infusion, MM is assessed with standard staging tests.
# Autologous peripheral blood mononuclear cells (PBMCs) are cultured with an anti-CD3 monoclonal antibody to induce T-cell proliferation. The cells are transduced with the γ-retroviral vector that encodes that CAR, and 9 days after the initiation of cultures, CAR-BCMA T cells are infused.
# CAR-BCMA T cells are detected by flow cytometry after staining with a phycoerythrin-labeled BCMA constant-fragment reagent (PE-BCMA-Fc). CAR-BCMA T cells are also detected by performing quantitative PCR (qPCR). […]
# [2] = system: CRO-AP2 cells (B-cell Lymphoma); experiment: Soluble (shed) BCMA by ELISA; format: cell-based, human
# Protocol: (§1) […] cell lines, comprising 9 subtypes of lymphomas (see Table 1), were seeded at 1×10^5 cells/well in a total volume of 250 μl into a 96-well plate. The cells were cultured in RPMI medium supplemented with 10% FCS. Compound (22) was added to the cell cultures at a concentration of 10 μM, 1 μM, 100 nM, 10 nM, 1 nM, 100 pM, 10 pM, 1 pM, and 100 fM, and cell lines (8 from Hadassah Medical Center, 31 from Eurofins) were incubated at 37° C. for 24 hours with Compound (22). Following incubation, the cells were collected and BCMA levels were evaluated on the cell surface for cell-bound BCMA. Cells were stained with an anti-BCMA antibody (PE anti-human 19F2 BCMA, Biolegend), and cell surface BCMA levels were determined by FACS analysis (Mean Fluorescence Intensity. Soluble BCMA levels were analyzed by ELISA (Human BCMA/TNFRSF17 DuoSet kit: R&D Systems).
# [3] = system: MC-116 cells (B-cell Lymphoma); experiment: Soluble (shed) BCMA by ELISA; format: cell-based, human
# Protocol: as §1
# [4] = system: Namalwa cells (Burkitt's Lymphoma); experiment: Soluble (shed) BCMA by ELISA; format: cell-based, human
# Protocol: as §1
# [5] = system: SR cells (Anaplastic Large Cell Lymphoma); experiment: Soluble (shed) BCMA by ELISA; format: cell-based, human
# Protocol: as §1
# [6] = system: SUDHL-10 cells (DLBCL); experiment: Soluble (shed) BCMA by ELISA; format: cell-based, human
# Protocol: as §1
# [7] = system: SUDHL-4 (Eurofins) cells (DLBCL); experiment: Soluble (shed) BCMA by ELISA; format: cell-based, human
# Protocol: as §1
# [8] = system: NU-DUL-1 cells (B-cell Lymphoma); experiment: Soluble (shed) BCMA by ELISA; format: cell-based, human
# Protocol: as §1
# [9] = system: EB-2 cells (Burkitt's Lymphoma); experiment: Soluble (shed) BCMA by ELISA; format: cell-based, human
# Protocol: as §1
# [10] = system: DB cells (DLBCL); experiment: Cell surface BCMA by FACS; format: cell-based, human; settings: for EC50: Homo sapiens
# Protocol: as §1
# [11] = system: CRO-AP2 cells (B-cell Lymphoma); experiment: Cell surface BCMA by FACS; format: cell-based, human; settings: for EC50: Homo sapiens
# Protocol: as §1
# [12] = system: TUR cells (Histiocytic Lymphoma); experiment: Cell surface BCMA by FACS; format: cell-based, human; settings: for EC50: Homo sapiens
# Protocol: as §1
# [13] = system: Jeko-1 cells (Mantle Cell Lymphoma); experiment: Cell surface BCMA by FACS; format: cell-based, human; settings: for EC50: Homo sapiens
# Protocol: as §1
# [14] = system: Jiyoye cells (Burkitt's Lymphoma); experiment: Cell surface BCMA by FACS; format: cell-based, human; settings: for EC50: Homo sapiens
# Protocol: as §1
# [15] = Homo sapiens, read-out: Shed BCMA (pg/ml) EC50
# [16] = 24 h, read-out: BCMA (Mean Fluorescence Intensity) EC50
compound,measurement,setting,value
"CN1C(=O)[C@@H](NC(=O)[C@H](CCC(F)(F)F)[C@H](CCC(F)(F)F)C(N)=O)N=C(c2ccccc2)c2ccccc21 [Compound 1, (2R,3S)—N-((3S)-1-methyl-2-oxo-5-phenyl-2,3-dihydro-1H-1,4-benzodiazepin-3-yl)-2,3-bis(3,3,3-trifluoropropyl)succinamide]",anti-tumor response,[1],improved anti-tumor response compared to either BCMA targeted CAR-T or Compound (1) treatment alone
"Cc1cccc2c1NC(=O)[C@@H](NC(=O)[C@H](CCC(F)(F)F)[C@H](CCC(F)(F)F)C(N)=O)N=C2c1cccc(F)c1 [Compound (22), (2R,3S)—N-((3S)-5-(3-fluorophenyl)-9-methyl-2-oxo-2,3-dihydro-1H-1,4-benzodiazepin-3-yl)-2,3-bis(3,3,3-trifluoropropyl)succinamide]",Shed BCMA (pg/ml) % Reduction,[2],91%
same,soluble BCMA 1 nM Compound (22),"[2]; 1 nM, 24 h",1895.3
same,soluble BCMA 10 nM Compound (22),"[2]; 10 nM, 24 h",409.5
same,soluble BCMA 100 nM Compound (22),"[2]; 100 nM, 24 h",126.1
same,EC50,[2]; [15],4.8 nM
same,EC50,"[3]; Homo sapiens, MC116, MC-116, read-out: Shed BCMA (pg/ml) EC50",6.5 nM
same,soluble BCMA 1 nM Compound (22),"[3]; MC116, 1 nM, 24 h",1810.6
same,soluble BCMA 10 nM Compound (22),"[3]; MC116, 10 nM, 24 h",414.8
same,soluble BCMA 100 nM Compound (22),"[3]; MC116, 100 nM, 24 h",303.7
same,Shed BCMA (pg/ml) % Reduction,[3]; MC-116,76%
same,EC50,"[4]; Homo sapiens, Namalwa, read-out: Shed BCMA (pg/ml) EC50",0.6 nM
same,soluble BCMA 10 nM Compound (22),"[4]; NAMALWA, 10 nM, 24 h",66.6
same,Shed BCMA (pg/ml) % Reduction,[4]; Namalwa,95%
same,soluble BCMA 1 nM Compound (22),"[4]; Namalwa, 1 nM, 24 h",87.5
same,soluble BCMA 100 nM Compound (22),"[4]; Namalwa, 100 nM, 24 h",67.4
same,Shed BCMA (pg/ml) % Reduction,[5],BLQ
same,EC50,[5]; [15],> 10000 nM
same,Shed BCMA (pg/ml) % Reduction,[6],97%
same,EC50,"[6]; Homo sapiens, SU-DHL10, read-out: Shed BCMA (pg/ml) EC50",0.9 nM
same,Shed BCMA (pg/ml) % Reduction,[7],87%
same,EC50,"[7]; Homo sapiens, SU-DHL-4, read-out: Shed BCMA (pg/ml) EC50",6.6 nM
same,Shed BCMA (pg/ml) % Reduction,[8],91%
same,EC50,[8]; [15],1 nM
same,soluble BCMA 1 nM Compound (22),"[9]; EB2, 1 nM, 24 h",>2000
same,soluble BCMA 10 nM Compound (22),"[9]; EB2, 10 nM, 24 h",597.7
same,soluble BCMA 100 nM Compound (22),"[9]; EB2, 100 nM, 24 h",479.4
same,Shed BCMA (pg/ml) % Reduction,[9]; EB-2,70%
same,EC50,"[9]; Homo sapiens, EB2, EB-2, read-out: Shed BCMA (pg/ml) EC50",7.1 nM
same,mBCMA (MFI) Fold Increase,[10],4.1 fold
same,BCMA (Mean Fluorescence Intensity) 1 nM Compound (22),"[10]; 1 nM, 24 h",870
same,BCMA (Mean Fluorescence Intensity) 100 nM Compound (22),"[10]; 100 nM, 24 h",1827
same,cell-bound BCMA,[10]; FIG. 9A,increased cell-bound BCMA
same,EC50,[10]; [16],4.9 nM
same,EC50,[10]; read-out: mBCMA (MFI) EC50,4.9 nM
same,mBCMA (MFI) Fold Increase,[11],6.6 fold
same,BCMA (Mean Fluorescence Intensity) 1 nM Compound (22),"[11]; 1 nM, 24 h",855
same,BCMA (Mean Fluorescence Intensity) 100 nM Compound (22),"[11]; 100 nM, 24 h",4782
same,EC50,[11]; [16],5.6 nM
same,EC50,[11]; read-out: mBCMA (MFI) EC50,5.6 nM
same,mBCMA (MFI) Fold Increase,[12],1.0 fold
same,BCMA (Mean Fluorescence Intensity) 1 nM Compound (22),"[12]; 1 nM, 24 h",464
same,BCMA (Mean Fluorescence Intensity) 100 nM Compound (22),"[12]; 100 nM, 24 h",462
same,EC50,[12]; [16],> 10000 nM
same,EC50,[12]; read-out: mBCMA (MFI) EC50,> 10000 nM
same,EC50,"[13]; JeKo-1, read-out: mBCMA (MFI) EC50",1.2 nM
same,EC50,"[13]; Jeko-1, 24 h, read-out: BCMA (Mean Fluorescence Intensity) EC50",1.2 nM
same,mBCMA (MFI) Fold Increase,[13]; Jeko-1,7.4 fold
same,BCMA (Mean Fluorescence Intensity) 1 nM Compound (22),"[13]; Jeko-1, 1 nM, 24 h",1654
same,BCMA (Mean Fluorescence Intensity) 100 nM Compound (22),"[13]; Jeko-1, 100 nM, 24 h",2885
same,EC50,"[14]; JIYOYE, read-out: mBCMA (MFI) EC50",7.6 nM
same,EC50,"[14]; Jiyoye, 24 h, read-out: BCMA (Mean Fluorescence Intensity) EC50",7.6 nM
same,mBCMA (MFI) Fold Increase,[14]; Jiyoye,4.2 fold
same,BCMA (Mean Fluorescence Intensity) 1 nM Compound (22),"[14]; Jiyoye, 1 nM, 24 h",1864
same,BCMA (Mean Fluorescence Intensity) 100 nM Compound (22),"[14]; Jiyoye, 100 nM, 24 h",2616
same,cell-bound BCMA,"[14]; Jiyoye, FIG. 8A",increased cell-bound BCMA
